Data on 15 compounds can be found in US6372800B1, “Benzene compound and pharmaceutical use thereof” (Mitsubishi Pharma Corporation, priority 1994, dated 2002).

For series [1], the system named is host versus graft reaction in rats. The experiment in a line: Inhibitory effect on host versus graft (HvG) reaction in rats (popliteal lymph node weight). The series is classed as in vivo, rat. Particulars: administered daily for 4 days after the injection with cells intravenously or orally, difference of right and left popliteal lymph node weights. The protocol: (§1) The spleen is removed from male WKAH rats at ages of 4 to 5 weeks old and is used to obtain a single cell suspension of spleen cells using RPMI 1640 medium (containing kanamycin sulfate at […], penicillin G potassium at 100 unit/ml, N-2-hydroxyethylpiperazine-N-2-ethane sulfate at 10 mM, 0.1% sodium bicarbonate, and L-glutamine at 2 mM). After the treatment of lysing of red blood cells, the cells are washed at three times and are adjusted at 5×10^7 cells/ml with physiological saline. By injection into right hind foot pad of 100 ul of spleen cell suspension, the host versus graft reaction (HvG reaction) are induced. After 4 days of the injection with cells, both of right and left popliteal lymph nodes are removed and the weight of them are measured. The test compounds are examined by difference of the lymph node weights between right and left as a indicator of HvG reaction. In addition, after 4 days of the injection with cells, blood is obtained from tail vein of the rats and the number of peripheral white blood cells are measured using automatic hemocytometer for animal (MEK-5158, Nihonkouden Co. Ltd.). Test compounds are administered daily for 4 days after the injection with cells intravenously or orally.
(§2) The value in the table represents minimum effective dose (mg/kg).

In series [2] the test system is peripheral white blood cells. The experiment in a line: Reduction of peripheral white blood cells in rats of the HvG reaction test. The series is classed as in vivo, rat. To be noted: for Reduction of peripheral white blood cells, minimum effective dose: administered daily for 4 days intravenously or orally, blood from tail vein 4 days after the injection with cells; for reduction of peripheral white blood cell number relative to immunosuppressive dose (assessment in words): conclusion drawn from Table 1 (HvG test). The protocol: as §1, §2

“And” between values parts separate entries of the source, which are not always exact repeats. Identical values can stand only once.

The compound `CCCCCCCOc1ccc(CCC(C)(CO)NC(=O)c2cc([N+](=O)[O-])cc([N+](=O)[O-])c2)cc1` (racemic) registered a melting point of 150 to 151 °C.

With `CCCCCCCOc1ccc(CCC(CO)(CCC)NC(=O)c2cc([N+](=O)[O-])cc([N+](=O)[O-])c2)cc1` (racemic) [Working Example 29], the melting point is 114 to 115 °C and 115 to 116 °C.

On to `CCCCCCCOc1ccc(CCC(C)(N)CO)cc1.Cl` (stereo not drawn) [Compound of experiment 1, 2-Amino-4-(4-heptyloxyphenyl)-2-methylbutanol Hydrochloride], for which the “Inhibitory effect on HvG reaction, minimum effective dose” value (shortened to “Inhibitory effect on HvG reaction”) in series [1] is recorded as 0.03 mg/kg. In addition, in series [2], the “Reduction of peripheral white blood cells, minimum effective dose” value (shortened to “Reduction … minimum effective dose”) was 0.03 mg/kg and the “reduction of peripheral white blood cell number relative to immunosuppressive dose (assessment in words)” value is listed as “weakness of reduction of peripheral white blood cell number”.

Compound `CCCCCCCCCc1ccc(CCCC(N)(CO)CCO)cc1` (stereo not drawn) [Compound of experiment 3, 2-Amino-2-[3-(4-nonylphenyl)propyl]butane-1,4-diol] gave a melting point of 71 to 73 °C. For the same compound, the “Inhibitory effect on HvG reaction” value in series [1] is reported as 0.03 mg/kg. Moreover, in series [2], the “Reduction … minimum effective dose” value amounted to 0.03 mg/kg and the “reduction of peripheral white blood cell number relative to immunosuppressive dose (assessment in words)” value is on record as “weakness of reduction of peripheral white blood cell number”.

`CCCCCCCOc1ccc(CCC(N)(CC)CO)cc1.Cl` (stereo not drawn) [Compound of experiment 27, 2-Amino-2-ethyl-4-(4-heptyloxyphenyl)butanol Hydrochloride] had a melting point of 108 to 110 °C. Further, in series [1], the “Inhibitory effect on HvG reaction” value amounted to 0.03 mg/kg. Moreover, in series [2], the “Reduction … minimum effective dose” value is 0.03 mg/kg and the “reduction of peripheral white blood cell number relative to immunosuppressive dose (assessment in words)” value was “weakness of reduction of peripheral white blood cell number”.

Regarding `CCCCCCCOc1ccc(CC[C@@](N)(CO)CCC)cc1.Cl` [Compound of experiment 31, (R)-2-amino-2-[2-(4-heptyloxyphenyl)ethyl]pentanol Hydrochloride], the “Inhibitory effect on HvG reaction” value in series [1] is recorded as <0.3 mg/kg. Also, in series [2], the “Reduction … minimum effective dose” value is recorded as 3 mg/kg and the “reduction of peripheral white blood cell number relative to immunosuppressive dose (assessment in words)” value was “weakness of reduction of peripheral white blood cell number”.

With `CCCCCCCOc1ccc(CCC(N)(CO)C(C)C)cc1.CCCCCCCOc1ccc(CCC(N)(CO)C(C)C)cc1.Cl.Cl.O` (stereo not drawn) [Compound of experiment 60, 2-Amino-2-isopropyl-4-(4-heptyloxyphenyl)butanol Hydrochloride 1/2 Hydrate], the “Inhibitory effect on HvG reaction” value in series [1] turned out to be 1 mg/kg. Besides, in series [2], the “Reduction … minimum effective dose” value is listed as 3 mg/kg and the “reduction of peripheral white blood cell number relative to immunosuppressive dose (assessment in words)” value was “weakness of reduction of peripheral white blood cell number”.

On to `CCCCCCCOc1ccc(CCC(C)(N)CO)cc1OC` (stereo not drawn) [Compound of experiment 66, 2-Amino-4-(4-heptyloxy-3-methoxyphenyl)-2-methylbutanol 1/10 Hydrate], for which the “Inhibitory effect on HvG reaction” value in series [1] is 3 mg/kg. Besides, in series [2], the “Reduction … minimum effective dose” value is 3 mg/kg and the “reduction of peripheral white blood cell number relative to immunosuppressive dose (assessment in words)” value was “weakness of reduction of peripheral white blood cell number”.

For the compound `CCCCCCCCc1ccc(CCC(N)(CO)CO)cc1.Cl` [FTY720, 2-amino-2-[2-(4-octylphenyl)ethyl]propane-1,3-diol hydrochloride, reference compound], the “Inhibitory effect on HvG reaction” value in series [1] was found to be 0.1 mg/kg. In addition, in series [2], the “Reduction … minimum effective dose” value stood at 0.03 mg/kg.

For the compound `CCCCCCCc1ccc(CCCC(N)(CO)CCO)cc1` (stereo not drawn) [Working Example 4, 2-Amino-2-[3-(4-heptylphenyl)propyl]butane-1,4-diol], the melting point is 68 to 71 °C.

Compound `CCCCCCCCCCCCc1ccc(CCC(CCOC(C)=O)(COC(C)=O)NC(C)=O)cc1` (stereo not drawn) [Working Example 16, 3-Acetamido-3-acetoxymethyl-5-(4-dodecylphenyl)pentyl Acetate] displayed a melting point of 75 to 77 °C.

`CCCCCCCOc1ccc(CCC(CO)(CCC)NC(=O)c2cc([N+](=O)[O-])cc([N+](=O)[O-])c2)cc1` (stereo not drawn) [Working Example 32] yielded a melting point of 90 to 91 °C.

The compound `CCCCCCCC(=O)c1ccc(CCC(CCOC(C)=O)(CCOC(C)=O)NC(C)=O)cc1` [Working Example 100, 3-Acetamido-5-acetoxy-3-[2-(4-octanoylphenyl)ethyl]pentyl Acetate] gave a melting point of 83 to 86 °C.

As for `CCCCCCCOc1ccc(CCC(CO)(CCO)NC(=O)c2cc([N+](=O)[O-])cc([N+](=O)[O-])c2)cc1` (stereo not drawn) [Working Example 115], the melting point was in the range of 78 to 79 °C.

`CCCCCCCOc1ccc(CCC(CO)(CCO)NC(=O)c2cc([N+](=O)[O-])cc([N+](=O)[O-])c2)cc1` (stereo not drawn) [Working Example 116] displayed a melting point of 77 to 79 °C.
